IC50 data for twelve molecules are collected here from BindingDB's records for doi:10.1021/jm020018f (Sphinx Laboratories, 2002).

The target of the first experiment is cAMP-dependent protein kinase catalytic subunit alpha (Bos taurus, UniProt P00517). As to the kind of experiment: PKA assay.
Conditions: not given
As for the experimental part: The activity of PKA, activated by cAMP, is measured by its ability to transfer phosphate from [gamma-32P]ATP to histone.
On to `O=C(N[C@@H]1CNCCC[C@H]1OC(=O)c1cc(O)c(Cc2c(O)cccc2C(=O)O)c(O)c1)c1ccc(O)cc1` [2-{[2,6-dihydroxy-4-({[(3R,4R)-3-[(4-hydroxybenzene)amido]azepan-4-yl]oxy}carbonyl)phenyl]methyl}-3-hydroxybenzoic acid], for which the IC50 came to 0.47 µM.

For the molecule `O=C(N[C@@H]1CNCCC[C@H]1OC(=O)c1cc(O)c(C(=O)c2ccc3ccccc3c2O)c(O)c1)c1ccc(O)cc1` [4-trans-[4-(1-Hydroxy-2-naphthoyl)-3,5-dihydroxybenzoyloxy]-3-(4-hydroxybenzamido)azepane], the IC50 is over 150 µM.

Regarding `O=C(N[C@@H]1CNCCC[C@H]1OC(=O)c1cc(O)c2c(=O)c3c(C(=O)O)cccc3oc2c1)c1ccc(O)cc1` [8-hydroxy-6-({[(3R,4R)-3-[(4-hydroxybenzene)amido]azepan-4-yl]oxy}carbonyl)-9-oxo-9H-xanthene-1-carboxylic acid], the half-inhibitory concentration (IC50) is over 15 µM.

Molecule `COc1cccc(O)c1C(=O)c1c(O)cc(C(=O)O[C@@H]2CCCNC[C@H]2NC(=O)c2ccc(O)cc2)cc1O` [(3R,4R)-3-[(4-hydroxybenzene)amido]azepan-4-yl 3,5-dihydroxy-4-[(2-hydroxy-6-methoxyphenyl)carbonyl]benzoate] registered a half-inhibitory concentration (IC50) of 0.25 µM.

`COc1cc(C(=O)O[C@@H]2CCCNC[C@H]2NC(=O)c2ccc(O)cc2)cc(OC)c1C(=O)c1c(O)cccc1O` [(3R,4R)-3-[(4-hydroxybenzene)amido]azepan-4-yl 4-[(2,6-dihydroxyphenyl)carbonyl]-3,5-dimethoxybenzoate]: half-maximal inhibition (IC50) required 4.3 µM.

With `COc1cccc(OC)c1C(=O)c1c(O)cc(C(=O)O[C@@H]2CCCNC[C@H]2NC(=O)c2ccc(O)cc2)cc1O` [(3R,4R)-3-[(4-hydroxybenzene)amido]azepan-4-yl 4-[(2,6-dimethoxyphenyl)carbonyl]-3,5-dihydroxybenzoate], the IC50 was determined as 0.36 µM.

`O=C(N[C@@H]1CNCCC[C@H]1OC(=O)c1cc(O)c(C2OC(=O)c3cccc(O)c32)c(O)c1)c1ccc(O)cc1` (stereo partly drawn) [trans-4-[3,5-Dihydroxy-4-(4-hydroxy-3-phthlido)benzoyloxy]-3-(4-hydroxybenzamido)azepine] returned a half-inhibitory concentration (IC50) of 0.3 µM.

Staying with this experiment, now noted: pH 7.5; 30 °C.
For the molecule `O=C(N[C@@H]1CNCCC[C@H]1OC(=O)c1cc(O)c(C(=O)c2ccccc2C(=O)O)c(O)c1)c1ccc(O)cc1`, it took 1 µM to reach half-maximal inhibition (IC50).

In turn, `O=C(N[C@@H]1CNCCC[C@H]1OC(=O)c1cc(O)c(C(=O)c2ccccc2O)c(O)c1)c1ccc(O)cc1` [4-trans-[4-(2-Hydroxybenzoyl)-3,5-dihydroxybenzoyloxy]-3-(4-hydroxybenzamido)azepane] had an IC50 of 0.44 µM.

Regarding `O=C(N[C@@H]1CNCCC[C@H]1OC(=O)c1cc(O)c(C(=O)[C@@H]2CCCC[C@@H]2C(=O)O)c(O)c1)c1ccc(O)cc1` [4-trans-[4-(cis-2-Carboxycyclohexanoyl)-3,5-dihydroxybenzoyloxy]-3-(4-hydroxybenzamido)azepane], the IC50 was determined as 7.9 µM.

Turning to `O=C(N[C@@H]1CNCCC[C@H]1OC(=O)c1cc(O)c(C(=O)[C@@H]2CCCC[C@H]2C(=O)O)c(O)c1)c1ccc(O)cc1` [(1R,2R)-2-{[2,6-dihydroxy-4-({[(3R,4R)-3-[(4-hydroxybenzene)amido]azepan-4-yl]oxy}carbonyl)phenyl]carbonyl}cyclohexane-1-carboxylic acid], the midpoint of inhibition, the IC50, lay at 6.7 µM.

In the case of `O=C(N[C@@H]1CNCCC[C@H]1OC(=O)c1cc(O)c(C(=O)c2c(O)cccc2O)c(O)c1)c1ccc(O)cc1` [(3R,4R)-3-[(4-hydroxybenzene)amido]azepan-4-yl 4-[(2,6-dihydroxyphenyl)carbonyl]-3,5-dihydroxybenzoate], the concentration for half-maximal inhibition (IC50) is 0.44 µM.
